The values that follow come from PMC11002996 (Journal of medicinal chemistry, 2023).

For data set [1], the target named is NLRP3 inflammasome (Mus musculus, UniProt Q8R4B8). The note with it: IL-1β release, LPS/ATP.
The target in data set [2] is NLRC4 inflammasome (Mus musculus, UniProt Q3UP24). The data set is described as follows: Inhibition of NLRC4 inflammasome. Type of data set: cell-based. The note with it: LPS 1 μg/mL, flagellin 1 μg/mL 6 h; 1 at 3 and 10 μM, 8 at 10 μM.
Data set [3] has as its target T1, AIM2 inflammasome (Mus musculus, UniProt Q91VJ1).
T1 sequence (Q91VJ1 1-354): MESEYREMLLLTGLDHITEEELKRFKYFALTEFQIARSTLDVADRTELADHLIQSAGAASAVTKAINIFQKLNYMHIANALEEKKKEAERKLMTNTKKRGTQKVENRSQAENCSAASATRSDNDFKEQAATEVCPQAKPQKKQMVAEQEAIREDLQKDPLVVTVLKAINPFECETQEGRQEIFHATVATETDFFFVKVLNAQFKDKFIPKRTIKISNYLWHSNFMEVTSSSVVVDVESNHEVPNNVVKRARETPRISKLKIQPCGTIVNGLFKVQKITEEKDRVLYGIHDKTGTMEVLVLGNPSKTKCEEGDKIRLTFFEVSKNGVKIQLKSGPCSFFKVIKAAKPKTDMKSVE
As to the kind of experiment: Inhibition of AIM2 inflammasome. Type of data set: cell-based. The note with it: LPS 1 μg/mL, poly(dA:dT) 4 μg/mL 4 h; 1 at 3 and 10 μM, 8 at 10 μM.

The target in data set [4] is human recombinant NLRP3 protein. The note with it: cited from earlier work.
The subject of data set [5] is NLRP3 inflammasome. The note with it: read-out: IC50 (potency as NLRP3 inhibitor); cited from earlier work.
For data set [6] the following is noted: earlier work of the authors; cited from earlier work.
Data set [7] deals with AD animal models. The note with it: cited from earlier work.
The test system of data set [8] is priming by LPS (TNF-α). As to the kind of experiment: LPS priming step, TNF-α in J774A.1 culture media by ELISA. It is filed as cell-based, mouse. The note with it: concentrations ≤ 3 μM.

Sequence of NLRP3 inflammasome (Mus musculus, UniProt Q8R4B8) (Q8R4B8 whole entry): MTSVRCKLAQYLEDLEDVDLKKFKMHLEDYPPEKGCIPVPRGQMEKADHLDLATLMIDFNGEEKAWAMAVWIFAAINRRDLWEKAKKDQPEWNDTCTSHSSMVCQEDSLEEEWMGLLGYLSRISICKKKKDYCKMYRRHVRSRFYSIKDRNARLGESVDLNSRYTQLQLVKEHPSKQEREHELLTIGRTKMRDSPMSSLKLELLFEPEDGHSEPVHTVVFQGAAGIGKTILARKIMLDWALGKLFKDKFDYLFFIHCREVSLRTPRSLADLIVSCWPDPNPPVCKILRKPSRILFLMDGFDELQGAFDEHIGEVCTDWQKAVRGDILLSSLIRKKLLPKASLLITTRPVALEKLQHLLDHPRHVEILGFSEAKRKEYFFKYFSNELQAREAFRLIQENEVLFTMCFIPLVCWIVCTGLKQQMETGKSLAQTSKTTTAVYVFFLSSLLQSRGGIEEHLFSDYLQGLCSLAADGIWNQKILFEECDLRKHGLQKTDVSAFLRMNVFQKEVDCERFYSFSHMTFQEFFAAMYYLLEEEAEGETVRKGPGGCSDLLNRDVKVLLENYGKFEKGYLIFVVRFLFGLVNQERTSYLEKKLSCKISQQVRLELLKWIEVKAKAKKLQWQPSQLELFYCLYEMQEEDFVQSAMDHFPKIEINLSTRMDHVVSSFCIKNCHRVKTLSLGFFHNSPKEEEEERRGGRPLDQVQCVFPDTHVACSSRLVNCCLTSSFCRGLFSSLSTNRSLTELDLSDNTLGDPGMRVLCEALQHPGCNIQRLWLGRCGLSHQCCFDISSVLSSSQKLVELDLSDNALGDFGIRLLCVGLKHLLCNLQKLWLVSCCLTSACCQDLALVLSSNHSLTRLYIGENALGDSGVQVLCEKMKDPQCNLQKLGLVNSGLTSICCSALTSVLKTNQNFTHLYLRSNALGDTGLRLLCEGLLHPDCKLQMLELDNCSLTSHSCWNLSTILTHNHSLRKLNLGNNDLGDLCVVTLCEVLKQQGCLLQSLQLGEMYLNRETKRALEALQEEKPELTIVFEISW
Sequence of NLRC4 inflammasome (Q3UP24 whole entry): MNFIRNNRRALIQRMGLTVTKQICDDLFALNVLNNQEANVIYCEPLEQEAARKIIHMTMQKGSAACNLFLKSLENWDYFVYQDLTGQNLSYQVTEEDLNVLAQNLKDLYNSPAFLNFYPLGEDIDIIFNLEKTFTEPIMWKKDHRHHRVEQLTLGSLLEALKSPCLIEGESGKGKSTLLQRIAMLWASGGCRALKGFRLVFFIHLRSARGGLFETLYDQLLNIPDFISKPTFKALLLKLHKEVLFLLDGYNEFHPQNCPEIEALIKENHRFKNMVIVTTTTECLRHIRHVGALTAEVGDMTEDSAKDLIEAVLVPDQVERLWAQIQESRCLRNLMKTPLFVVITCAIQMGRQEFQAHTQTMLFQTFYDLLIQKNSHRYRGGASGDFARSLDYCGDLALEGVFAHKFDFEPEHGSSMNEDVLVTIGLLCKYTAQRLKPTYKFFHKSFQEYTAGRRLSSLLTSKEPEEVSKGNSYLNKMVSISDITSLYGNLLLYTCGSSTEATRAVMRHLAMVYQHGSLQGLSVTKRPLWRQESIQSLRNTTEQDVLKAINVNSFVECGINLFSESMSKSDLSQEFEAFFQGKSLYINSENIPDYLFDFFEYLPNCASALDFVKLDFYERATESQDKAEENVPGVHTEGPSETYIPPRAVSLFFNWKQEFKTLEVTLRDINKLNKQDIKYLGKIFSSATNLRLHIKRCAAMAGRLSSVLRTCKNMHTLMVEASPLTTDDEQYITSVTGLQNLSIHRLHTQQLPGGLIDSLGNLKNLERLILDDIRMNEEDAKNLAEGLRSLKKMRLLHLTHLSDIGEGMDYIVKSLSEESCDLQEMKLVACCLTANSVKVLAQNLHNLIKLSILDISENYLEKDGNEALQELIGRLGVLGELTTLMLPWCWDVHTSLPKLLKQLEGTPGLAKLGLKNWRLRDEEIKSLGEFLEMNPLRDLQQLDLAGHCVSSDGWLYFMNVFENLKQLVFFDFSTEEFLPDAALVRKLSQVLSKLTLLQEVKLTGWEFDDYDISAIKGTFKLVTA

As to `COC(=O)c1ccc(-c2cn(Cc3ccccc3)nn2)cc1` [Compound 24, Methyl 4-(1-benzyl-1H-1,2,3-triazol-4-yl)benzoate], the “inhibitory potency compared to 8” value in data set [1] is recorded as ~3–7-fold decrease or complete loss of potency.

As to `COC(=O)c1cccc(-c2cn(Cc3cc(Cl)ccc3OC)nn2)c1` [Compound 11, Methyl 3-(1-(5-chloro-2-methoxybenzyl)-1H-1,2,3-triazol-4-yl)benzoate], the “inhibitory potency compared to 8” value in data set [1] is reported as “decrease of inhibitory potency”.

`COC(=O)c1ccc(-c2cn(Cc3cc(Cl)ccc3OC)nn2)cc1` [Compound 8, Methyl 4-(1-(5-chloro-2-methoxybenzyl)-1H-1,2,3-triazol-4-yl)benzoate]: in data set [2], the “inhibition of the NLRC4 inflammasome” value was “did not show inhibitory effects”. Moreover, the “inhibition of the AIM2 inflammasome” value in data set [3] is “did not show inhibitory effects”.

Regarding `C#CCNS(=O)(=O)c1ccc(CCN(Cc2cc(Cl)ccc2OCCC)C(=O)Cc2ccsc2)cc1` [YQ128], the Kd in data set [4] is 117 nM. Besides, the half-inhibitory concentration (IC50) in data set [5] was 300 ± 10 nM. Moreover, the “metabolism / metabolic stability in mouse liver microsomes” value in data set [6] is given as “rapid metabolism”.

Consider `COc1ccc(Cl)cc1Cn1cc(-c2ccc(C(=O)N3CCC3)cc2)nn1` [Compound 14, Azetidin-1-yl(4-(1-(5-chloro-2-methoxybenzyl)-1H-1,2,3-triazol-4-yl)phenyl)methanone], for which the “inhibitory potency compared to 8” value in data set [1] is given as “decreased inhibitory potency”.

Regarding `CNS(=O)(=O)c1ccc(CCNC(=O)c2cc(Cl)ccc2OC)cc1` [JC124], the “in vivo efficacy” value in data set [7] was “in vivo efficacy”. Besides, in data set [6], the “metabolism / metabolic stability in mouse liver microsomes” value is “relatively better metabolic stability”.

As to `COC(=O)c1ccc(-c2cn(Cc3cc(Cl)cc(OC)c3)nn2)cc1` [Compound 28, Methyl 4-(1-(3-chloro-5-methoxybenzyl)-1H-1,2,3-triazol-4-yl)benzoate], the “inhibitory potency compared to 8” value in data set [1] is reported as “comparable potency”.

With `COC(=O)c1ccc(-c2cn(Cc3cc(Cl)ccc3O)nn2)cc1` [Compound 27, Methyl 4-(1-(5-chloro-2-hydroxybenzyl)-1H-1,2,3-triazol-4-yl)benzoate], the “decrease in inhibitory potency compared to 8” value (“decrease in inhibitory potency” for short) in data set [1] is reported as ~ 5 fold.

For the molecule `COC(=O)c1ccc(-c2cn(Cc3cc(Br)ccc3OC)nn2)cc1` [Compound 33, Methyl 4-(1-(5-bromo-2-methoxybenzyl)-1H-1,2,3-triazol-4-yl)benzoate], in data set [1], the “decrease in inhibitory potency” value is 2–3 fold.

With `COC(=O)c1ccc(-c2cn(Cc3cc(F)ccc3OC)nn2)cc1` [Compound 32, Methyl 4-(1-(5-fluoro-2-methoxybenzyl)-1H-1,2,3-triazol-4-yl)benzoate], the “decrease in inhibitory potency” value in data set [1] is 2–3 fold.

Consider `CCCOc1ccc(Cl)cc1Cn1cc(-c2ccccc2)nn1` [Compound 1, 1-(5-chloro-2-propoxybenzyl)-4-phenyl-1H-1,2,3-triazole], for which the “interference with the priming by LPS” value in data set [8] is reported as “did not show interference”. In addition, the “inhibition of the NLRC4 inflammasome” value in data set [2] is “only observed for the NLRC4 and AIM2 inflammasomes at higher concentrations”. For the same molecule, the “inhibition of the AIM2 inflammasome” value in data set [3] was “only observed for the NLRC4 and AIM2 inflammasomes at higher concentrations”.

Turning to `CCCOc1ccc(Cl)cc1Cn1cc(-c2ccc(C(=O)O)cc2)nn1` [Compound 7, 4-(1-(5-chloro-2-propoxybenzyl)-1H-1,2,3-triazol-4-yl)benzoic acid], the “lower potency compared to 6” value in data set [1] was ~ 10 fold.

Regarding `COc1ccc(Cl)cc1Cn1cc(-c2ccc(C(=O)O)cc2)nn1` [Compound 12, 4-(1-(5-chloro-2-methoxybenzyl)-1H-1,2,3-triazol-4-yl)benzoic acid], the “inhibitory potency compared to 8” value in data set [1] was “significantly less potent”.

For `COC(=O)c1ccc(-c2cn(Cc3cc(C(F)(F)F)ccc3OC)nn2)cc1` [Compound 34, Methyl 4-(1-(2-methoxy-5-(trifluoromethyl)benzyl)-1H-1,2,3-triazol-4-yl)benzoate], in data set [1], the “inhibitory potency compared to 8” value is recorded as “comparable potency”.

In the case of `COC(=O)c1ccc(-c2cn(Cc3cc(Cl)ccc3OC)nn2)c(F)c1` [Compound 16, Methyl 4-(1-(5-chloro-2-methoxybenzyl)-1H-1,2,3-triazol-4-yl)-3-fluorobenzoate], the “decrease in inhibitory potency” value in data set [1] is given as 3–4 fold.

On to `COC(=O)c1ccc(-c2cn(Cc3cccc(Cl)c3)nn2)cc1` [Compound 26, Methyl 4-(1-(3-chlorobenzyl)-1H-1,2,3-triazol-4-yl)benzoate], for which the “inhibitory potency compared to 8” value in data set [1] was ~3–7-fold decrease or complete loss of potency.

Take `CNC(=O)c1ccc(-c2cn(Cc3cc(Cl)ccc3OC)nn2)cc1` [Compound 13, 4-(1-(5-chloro-2-methoxybenzyl)-1H-1,2,3-triazol-4-yl)-N-methylbenzamide]: the “inhibitory potency compared to 8” value in data set [1] is listed as “decreased inhibitory potency”.

For the molecule `CCCOc1ccc(Cl)cc1Cn1cc(-c2ccc(S(N)(=O)=O)cc2)nn1` [Compound 2, 4-(1-(5-chloro-2-propoxybenzyl)-1H-1,2,3-triazol-4-yl)benzenesulfonamide], the “inhibitory potency compared to 1” value in data set [1] is “comparable potency”.

Consider `COC(=O)c1ccc(-c2cn(Cc3ccccc3OC)nn2)cc1` [Compound 25, Methyl 4-(1-(2-methoxybenzyl)-1H-1,2,3-triazol-4-yl)benzoate], for which the “inhibitory potency compared to 8” value in data set [1] was ~3–7-fold decrease or complete loss of potency.

Take `COC(=O)c1ccc(-c2cn(Cc3cc(Cl)ccc3OC)nn2)c(C)c1` [Compound 15, Methyl 4-(1-(5-chloro-2-methoxybenzyl)-1H-1,2,3-triazol-4-yl)-3-methylbenzoate]: the “decrease in inhibitory potency” value in data set [1] is reported as 3–4 fold.
